Data taken from ChEMBL document CHEMBL1144455, “A small molecule-kinase interaction map for clinical kinase inhibitors” (Nat Biotechnol, 2005).

Legend:
Ephrin type-B receptor 4 = target: T1, Ephrin type-B receptor 4 (Homo sapiens, UniProt P54760)
T1 sequence (P54760 whole entry): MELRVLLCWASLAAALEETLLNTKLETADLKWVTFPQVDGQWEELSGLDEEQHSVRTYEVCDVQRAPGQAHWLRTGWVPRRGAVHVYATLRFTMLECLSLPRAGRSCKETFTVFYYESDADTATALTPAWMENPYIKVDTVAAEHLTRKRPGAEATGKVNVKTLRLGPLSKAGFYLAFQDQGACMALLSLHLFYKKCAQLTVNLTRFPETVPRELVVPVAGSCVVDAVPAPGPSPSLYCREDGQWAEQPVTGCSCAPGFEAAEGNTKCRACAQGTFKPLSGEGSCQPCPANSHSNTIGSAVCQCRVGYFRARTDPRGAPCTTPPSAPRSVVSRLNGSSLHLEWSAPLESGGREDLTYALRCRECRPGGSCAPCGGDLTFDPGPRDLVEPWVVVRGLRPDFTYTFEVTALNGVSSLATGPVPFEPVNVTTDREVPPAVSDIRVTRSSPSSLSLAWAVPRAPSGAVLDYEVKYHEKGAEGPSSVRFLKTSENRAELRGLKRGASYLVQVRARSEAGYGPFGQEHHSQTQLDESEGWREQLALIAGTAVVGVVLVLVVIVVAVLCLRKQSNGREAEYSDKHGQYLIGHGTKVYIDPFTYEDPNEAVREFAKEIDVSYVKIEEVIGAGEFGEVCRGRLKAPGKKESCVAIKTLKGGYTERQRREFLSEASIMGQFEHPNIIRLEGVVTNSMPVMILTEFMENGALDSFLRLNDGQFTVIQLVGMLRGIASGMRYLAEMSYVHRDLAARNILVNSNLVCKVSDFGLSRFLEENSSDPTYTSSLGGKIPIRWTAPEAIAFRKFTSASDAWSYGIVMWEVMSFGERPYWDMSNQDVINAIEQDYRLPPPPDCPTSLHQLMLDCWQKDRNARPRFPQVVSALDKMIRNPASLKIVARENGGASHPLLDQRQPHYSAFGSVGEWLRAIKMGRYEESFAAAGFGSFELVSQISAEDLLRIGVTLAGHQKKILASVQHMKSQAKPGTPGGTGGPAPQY

[1] = target: Serine/threonine-protein kinase PAK 5 (Homo sapiens, UniProt Q9P286)
Sequence of Serine/threonine-protein kinase PAK 5 (Q9P286 whole entry): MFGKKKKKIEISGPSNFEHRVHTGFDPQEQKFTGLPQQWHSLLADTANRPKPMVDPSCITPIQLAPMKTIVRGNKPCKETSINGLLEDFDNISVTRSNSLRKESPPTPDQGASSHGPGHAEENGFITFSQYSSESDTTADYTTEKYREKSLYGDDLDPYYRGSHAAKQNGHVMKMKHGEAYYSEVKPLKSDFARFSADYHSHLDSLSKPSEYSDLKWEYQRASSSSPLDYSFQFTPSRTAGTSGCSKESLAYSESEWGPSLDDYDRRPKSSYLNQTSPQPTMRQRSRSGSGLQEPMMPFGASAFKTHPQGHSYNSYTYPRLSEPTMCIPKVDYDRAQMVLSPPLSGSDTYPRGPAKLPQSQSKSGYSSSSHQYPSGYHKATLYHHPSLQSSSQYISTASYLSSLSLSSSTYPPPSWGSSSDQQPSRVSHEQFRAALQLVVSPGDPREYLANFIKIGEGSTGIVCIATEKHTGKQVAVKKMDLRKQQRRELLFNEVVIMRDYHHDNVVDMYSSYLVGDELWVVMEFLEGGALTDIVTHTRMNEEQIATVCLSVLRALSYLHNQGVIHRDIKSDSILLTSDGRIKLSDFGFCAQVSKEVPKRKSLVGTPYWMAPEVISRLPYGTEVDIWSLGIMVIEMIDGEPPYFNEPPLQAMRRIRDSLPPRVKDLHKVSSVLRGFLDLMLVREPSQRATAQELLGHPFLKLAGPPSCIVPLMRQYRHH

[2] = target: T2, Mitogen-activated protein kinase 12 (Homo sapiens, UniProt P53778)
T2 sequence (P53778 whole entry): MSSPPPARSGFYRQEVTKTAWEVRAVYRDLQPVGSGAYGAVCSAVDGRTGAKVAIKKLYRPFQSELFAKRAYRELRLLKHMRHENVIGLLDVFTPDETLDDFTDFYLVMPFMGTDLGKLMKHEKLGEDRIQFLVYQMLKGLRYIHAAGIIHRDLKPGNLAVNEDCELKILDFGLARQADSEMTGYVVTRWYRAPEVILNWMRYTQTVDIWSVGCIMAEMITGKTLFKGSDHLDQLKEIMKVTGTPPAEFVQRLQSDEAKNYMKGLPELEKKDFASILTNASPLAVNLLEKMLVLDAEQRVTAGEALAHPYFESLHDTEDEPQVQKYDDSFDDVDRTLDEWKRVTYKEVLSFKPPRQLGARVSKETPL

[3] = target: Tyrosine-protein kinase BTK (Homo sapiens, UniProt Q06187)
Sequence of Tyrosine-protein kinase BTK (Q06187 whole entry): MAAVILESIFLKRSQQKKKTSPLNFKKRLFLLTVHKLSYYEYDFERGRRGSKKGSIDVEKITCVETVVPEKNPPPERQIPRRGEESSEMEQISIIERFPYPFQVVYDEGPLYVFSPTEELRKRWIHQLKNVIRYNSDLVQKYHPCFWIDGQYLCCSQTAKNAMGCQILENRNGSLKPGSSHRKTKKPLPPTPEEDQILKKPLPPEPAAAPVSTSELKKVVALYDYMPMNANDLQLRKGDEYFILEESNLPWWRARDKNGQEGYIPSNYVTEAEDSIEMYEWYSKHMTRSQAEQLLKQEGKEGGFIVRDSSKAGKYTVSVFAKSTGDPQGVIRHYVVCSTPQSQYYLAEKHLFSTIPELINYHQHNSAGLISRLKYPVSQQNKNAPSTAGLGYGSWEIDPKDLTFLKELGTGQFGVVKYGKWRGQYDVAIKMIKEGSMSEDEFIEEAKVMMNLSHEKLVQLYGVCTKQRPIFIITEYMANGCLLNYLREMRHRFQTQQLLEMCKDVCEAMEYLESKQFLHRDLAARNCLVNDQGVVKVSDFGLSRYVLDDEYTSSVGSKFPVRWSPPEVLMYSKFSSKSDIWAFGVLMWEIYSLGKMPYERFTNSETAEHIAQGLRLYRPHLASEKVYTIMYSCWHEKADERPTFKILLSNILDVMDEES

[4] = target: Serine/threonine-protein kinase PAK 4 (Homo sapiens, UniProt O96013)
Sequence of Serine/threonine-protein kinase PAK 4 (O96013 whole entry): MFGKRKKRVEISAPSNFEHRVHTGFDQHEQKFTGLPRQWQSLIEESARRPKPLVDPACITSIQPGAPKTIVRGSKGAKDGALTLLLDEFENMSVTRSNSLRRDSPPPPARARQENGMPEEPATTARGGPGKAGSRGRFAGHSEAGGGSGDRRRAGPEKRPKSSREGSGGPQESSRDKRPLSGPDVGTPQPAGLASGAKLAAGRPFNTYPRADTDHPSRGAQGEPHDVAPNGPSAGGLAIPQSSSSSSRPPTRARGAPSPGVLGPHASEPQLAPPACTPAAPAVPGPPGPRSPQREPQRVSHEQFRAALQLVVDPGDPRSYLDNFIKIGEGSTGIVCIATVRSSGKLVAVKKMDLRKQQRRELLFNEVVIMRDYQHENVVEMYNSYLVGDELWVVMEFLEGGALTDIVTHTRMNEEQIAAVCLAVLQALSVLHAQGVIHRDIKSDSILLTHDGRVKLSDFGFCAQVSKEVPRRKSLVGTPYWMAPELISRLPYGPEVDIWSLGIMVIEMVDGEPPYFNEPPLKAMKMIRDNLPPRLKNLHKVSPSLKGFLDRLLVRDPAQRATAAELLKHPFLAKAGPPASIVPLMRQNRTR

[5] = target: T3, Serine/threonine-protein kinase 17B (Homo sapiens, UniProt O94768)
T3 sequence (O94768 whole entry): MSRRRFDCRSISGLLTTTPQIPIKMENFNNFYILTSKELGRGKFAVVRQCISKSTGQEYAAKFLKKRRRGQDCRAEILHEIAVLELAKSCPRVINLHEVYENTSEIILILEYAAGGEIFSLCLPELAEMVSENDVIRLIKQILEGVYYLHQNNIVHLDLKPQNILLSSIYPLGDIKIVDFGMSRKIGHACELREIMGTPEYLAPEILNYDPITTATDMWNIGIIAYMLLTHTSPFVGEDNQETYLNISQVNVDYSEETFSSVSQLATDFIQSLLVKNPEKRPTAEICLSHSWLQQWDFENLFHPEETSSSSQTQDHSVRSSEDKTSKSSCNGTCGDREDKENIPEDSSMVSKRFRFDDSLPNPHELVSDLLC

[6] = target: Serine/threonine-protein kinase 16 (Homo sapiens, UniProt O75716)
Sequence of Serine/threonine-protein kinase 16 (O75716 whole entry): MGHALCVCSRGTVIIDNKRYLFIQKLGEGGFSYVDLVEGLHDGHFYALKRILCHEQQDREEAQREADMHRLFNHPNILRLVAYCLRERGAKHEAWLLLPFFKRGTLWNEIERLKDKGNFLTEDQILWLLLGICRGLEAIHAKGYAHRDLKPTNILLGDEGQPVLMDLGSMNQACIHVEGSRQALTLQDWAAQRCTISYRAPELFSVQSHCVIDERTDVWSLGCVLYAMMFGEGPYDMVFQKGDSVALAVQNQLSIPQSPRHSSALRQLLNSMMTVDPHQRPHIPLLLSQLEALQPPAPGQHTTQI

[7] = target: Calcium/calmodulin-dependent protein kinase type II subunit alpha (Homo sapiens, UniProt Q9UQM7)
Sequence of Calcium/calmodulin-dependent protein kinase type II subunit alpha (Q9UQM7 whole entry): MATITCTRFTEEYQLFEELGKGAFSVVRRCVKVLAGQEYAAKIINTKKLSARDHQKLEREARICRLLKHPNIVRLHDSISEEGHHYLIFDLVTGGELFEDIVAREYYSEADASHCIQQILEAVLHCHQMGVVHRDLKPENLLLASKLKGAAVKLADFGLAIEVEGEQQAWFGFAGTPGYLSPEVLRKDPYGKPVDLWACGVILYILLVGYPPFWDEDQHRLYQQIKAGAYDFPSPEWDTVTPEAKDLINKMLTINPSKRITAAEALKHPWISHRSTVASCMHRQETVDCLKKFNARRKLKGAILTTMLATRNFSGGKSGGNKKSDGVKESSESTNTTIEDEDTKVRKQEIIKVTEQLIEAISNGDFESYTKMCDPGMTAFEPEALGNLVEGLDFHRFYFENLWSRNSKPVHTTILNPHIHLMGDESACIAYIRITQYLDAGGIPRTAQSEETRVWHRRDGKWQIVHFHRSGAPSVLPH

[8] = target: Myosin light chain kinase 2, skeletal/cardiac muscle (Homo sapiens, UniProt Q9H1R3)
Sequence of Myosin light chain kinase 2, skeletal/cardiac muscle (Q9H1R3 whole entry): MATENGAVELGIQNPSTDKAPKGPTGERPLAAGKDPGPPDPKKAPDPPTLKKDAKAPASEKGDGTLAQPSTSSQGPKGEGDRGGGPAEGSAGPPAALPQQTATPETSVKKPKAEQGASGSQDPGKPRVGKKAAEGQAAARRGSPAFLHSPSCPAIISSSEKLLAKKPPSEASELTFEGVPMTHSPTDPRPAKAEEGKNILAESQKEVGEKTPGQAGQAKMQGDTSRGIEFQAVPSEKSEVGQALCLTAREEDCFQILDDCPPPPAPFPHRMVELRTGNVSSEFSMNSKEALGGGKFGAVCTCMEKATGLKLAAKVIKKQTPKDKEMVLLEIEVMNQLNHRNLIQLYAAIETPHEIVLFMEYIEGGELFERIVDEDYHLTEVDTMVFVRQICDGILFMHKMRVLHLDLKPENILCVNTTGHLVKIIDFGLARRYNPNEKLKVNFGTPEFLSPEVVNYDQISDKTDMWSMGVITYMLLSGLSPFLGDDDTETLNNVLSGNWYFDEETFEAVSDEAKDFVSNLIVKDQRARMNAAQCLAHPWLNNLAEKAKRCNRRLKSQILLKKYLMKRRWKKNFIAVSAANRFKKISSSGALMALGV

[9] = target: High affinity nerve growth factor receptor (Homo sapiens, UniProt P04629)
Sequence of High affinity nerve growth factor receptor (P04629 whole entry): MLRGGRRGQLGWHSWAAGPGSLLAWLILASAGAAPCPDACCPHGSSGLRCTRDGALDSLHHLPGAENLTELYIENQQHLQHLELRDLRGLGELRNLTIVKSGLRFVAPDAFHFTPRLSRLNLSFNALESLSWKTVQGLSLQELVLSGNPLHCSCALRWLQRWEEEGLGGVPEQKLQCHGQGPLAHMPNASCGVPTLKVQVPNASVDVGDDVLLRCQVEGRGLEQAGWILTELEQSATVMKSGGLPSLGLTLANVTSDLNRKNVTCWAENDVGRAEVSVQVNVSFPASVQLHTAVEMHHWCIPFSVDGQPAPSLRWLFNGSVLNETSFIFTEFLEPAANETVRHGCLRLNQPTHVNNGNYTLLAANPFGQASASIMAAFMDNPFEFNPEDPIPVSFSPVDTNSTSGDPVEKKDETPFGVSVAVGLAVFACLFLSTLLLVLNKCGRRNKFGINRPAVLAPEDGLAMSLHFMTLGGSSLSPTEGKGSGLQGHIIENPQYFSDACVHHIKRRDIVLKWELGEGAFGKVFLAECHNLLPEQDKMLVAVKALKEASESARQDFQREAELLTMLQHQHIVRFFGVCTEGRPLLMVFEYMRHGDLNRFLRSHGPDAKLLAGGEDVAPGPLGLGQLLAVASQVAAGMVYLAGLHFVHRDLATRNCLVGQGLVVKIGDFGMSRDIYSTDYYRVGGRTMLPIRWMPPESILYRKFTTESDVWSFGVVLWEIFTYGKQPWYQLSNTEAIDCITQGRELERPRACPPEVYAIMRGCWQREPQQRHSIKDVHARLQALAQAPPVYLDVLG

[10] = target: Protein kinase C alpha type (Homo sapiens, UniProt P17252)
Focal adhesion kinase 1 = Focal adhesion kinase 1 (Homo sapiens, UniProt Q05397)
[11] = target: Calcium/calmodulin-dependent protein kinase type 1 (Homo sapiens, UniProt Q14012)
Sequence of Calcium/calmodulin-dependent protein kinase type 1 (Q14012 whole entry): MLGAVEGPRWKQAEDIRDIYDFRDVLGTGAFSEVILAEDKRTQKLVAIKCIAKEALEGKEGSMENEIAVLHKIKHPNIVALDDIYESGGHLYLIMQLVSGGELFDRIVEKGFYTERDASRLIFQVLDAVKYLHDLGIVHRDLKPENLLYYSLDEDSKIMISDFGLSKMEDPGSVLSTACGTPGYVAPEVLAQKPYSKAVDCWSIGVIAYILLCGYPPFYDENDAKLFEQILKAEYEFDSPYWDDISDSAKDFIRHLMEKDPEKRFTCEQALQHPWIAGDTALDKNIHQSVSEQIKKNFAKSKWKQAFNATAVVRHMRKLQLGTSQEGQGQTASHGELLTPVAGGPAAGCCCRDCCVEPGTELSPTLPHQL

[12] = target: Serine/threonine-protein kinase pim-1 (Homo sapiens, UniProt P11309)
Sequence of Serine/threonine-protein kinase pim-1 (P11309 whole entry): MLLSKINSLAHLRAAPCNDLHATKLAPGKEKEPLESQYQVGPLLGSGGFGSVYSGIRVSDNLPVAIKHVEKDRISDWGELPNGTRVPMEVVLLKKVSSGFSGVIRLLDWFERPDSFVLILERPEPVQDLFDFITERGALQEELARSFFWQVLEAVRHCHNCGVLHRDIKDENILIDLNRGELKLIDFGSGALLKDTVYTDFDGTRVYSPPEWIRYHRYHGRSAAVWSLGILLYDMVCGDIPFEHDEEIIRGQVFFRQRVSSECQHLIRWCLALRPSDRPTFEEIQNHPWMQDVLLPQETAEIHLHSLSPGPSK

Aurora kinase A = target: T4, Aurora kinase A (Homo sapiens, UniProt O14965)
T4 sequence (O14965 whole entry): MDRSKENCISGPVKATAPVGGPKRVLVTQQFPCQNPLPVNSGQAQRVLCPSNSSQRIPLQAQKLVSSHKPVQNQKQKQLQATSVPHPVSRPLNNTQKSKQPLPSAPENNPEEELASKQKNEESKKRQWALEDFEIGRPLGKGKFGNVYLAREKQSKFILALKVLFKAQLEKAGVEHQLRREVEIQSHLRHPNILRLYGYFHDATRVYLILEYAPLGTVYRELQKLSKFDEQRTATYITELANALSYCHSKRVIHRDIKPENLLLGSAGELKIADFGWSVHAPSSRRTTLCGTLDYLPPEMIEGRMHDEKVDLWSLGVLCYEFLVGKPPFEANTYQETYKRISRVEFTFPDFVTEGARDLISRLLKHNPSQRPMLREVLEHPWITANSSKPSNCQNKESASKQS

Measured: Kd

C#Cc1cccc(Nc2ncnc3cc(OCCOC)c(OCCOC)cc23)c1 [ERLOTINIB]
not listed: Aurora kinase A
Not Active: all other assays above

Cc1ccc(NC(=O)c2ccc(CN3CCN(C)CC3)cc2)cc1Nc1nccc(-c2cccnc2)n1 [IMATINIB]
Not Active: all assays above

O=c1ncn2nc(Sc3ccc(F)cc3F)ccc2c1-c1c(Cl)cccc1Cl [NEFLAMAPIMOD]
not listed: Ephrin type-B receptor 4
Not Active: all other assays above

CCOc1cc2ncc(C#N)c(Nc3ccc(F)c(Cl)c3)c2cc1NC(=O)/C=C/CN(C)C [PELITINIB]
not listed: Ephrin type-B receptor 4 | [3] | [5] | [8] | Focal adhesion kinase 1
Not Active: all other assays above

Oc1ccc(-c2nc(-c3ccc(F)cc3)c(-c3ccncc3)[nH]2)cc1 [SB-202190]
not listed: [2]
Not Active: all other assays above

C[S+]([O-])c1ccc(-c2nc(-c3ccc(F)cc3)c(-c3ccncc3)[nH]2)cc1 (stereo unspecified) [SB-203580]
not listed: [2]
Not Active: all other assays above

Oc1c2ccccc2c2c3c(cccc13)N=N2 [SP-600125]
not listed: [2] | [6] | [11] | Aurora kinase A
Not Active: all other assays above

COc1cc2c(N3CCN(C(=O)Nc4ccc(OC(C)C)cc4)CC3)ncnc2cc1OCCCN1CCCCC1 [TANDUTINIB]
not listed: [9]
Not Active: all other assays above
